Where two headings read alike, the source gives them in different places.
Columns and labels:
Neutrophil = Neutrophil cell viability by flow cytometry with DAPI staining; assay type: cell-based
Description: Neutrophil cell viability was assessed by flow cytometry with DAPI staining pas 24 hours incubation with dihydroquercetin (5, 15 and 25 μM), 3-(2-chloroacetamido) ethyl benzoate (1, 2 and 4 μM) and bisabolol (0.05, 0.1 and 0.5% w/v).

[1] = system: Neutrophils infected with L. major mCherry; experiment: ROS production by neutrophils infected with L. major mCherry (Luminol); assay type: cell-based; conditions: MOI 1:10, Luminol for 90 min
Description: Neutrophils were isolated by Magnetic-activated cell sorting (MACS) and infected with L. major mCherry at a multiplicity of infection ratio (MOI) of 1:10.
Dihydroquercetin, […] ethyl benzoate or bisabolol at different concentrations were added and stimulated for 24 hours.
Kinetic of ROS production was measured by Luminol for 90 min.

Leishmania major mCherry = experiment: Parasite killing in bone marrow-derived macrophages infected with Leishmania major mCherry (flow cytometry, microscopy); assay type: cell-based; conditions: for macrophage mediated parasite killing: BMDM infected with L. major mCherry, compounds tested individually
Description: The direct microbicidal effect of compounds against the Leishmania parasites in infected macrophages and neutrophils was evaluated.
Bone marrow-derived macrophages (BMDM) were cultured for 7 days, harvested and infected with Leishmania major mCherry for 2 hrs. Then the non-phagocytosed parasites were washed and dihydroquercetin, 3-(2-chloroacetamido) ethyl benzoate or bisabolol were added at different concentrations and incubated at different time points. • Parasites killing was evaluated by flow cytometry and microscopy. • NO production was assessed by Griess reaction from the supernatants.

Leishmania parasites = experiment: Individual evaluation against Leishmania parasites; conditions: evaluated individually

Structure (SMILES)	neutrophil viability (Neutrophil; 24 hours incubation, 1, 2 and 4 μM)	ROS production [1]	direct microbicidal effect against L. major (Leishmania major mCherry; infected macrophages and neutrophils, different concentrations)	cytotoxicity (neutrophil cell viability) (Neutrophil; 24 hours incubation, 5, 15 and 25 μM)	effect against Leishmania parasites (Leishmania parasites)	macrophage mediated parasite killing (Leishmania major mCherry)	cytotoxicity (neutrophil cell viability) (Neutrophil)
CCOC(=O)c1cccc(NC(=O)CCl)c1 [3-(2-chloroacetamido) ethyl benzoate]	induced a reduction in neutrophil viability	decrease in ROS production	had a direct microbicidal effect against L. major	–	–	–	–
O=C1c2c(O)cc(O)cc2OC(c2ccc(O)c(O)c2)C1O (stereo not shown) [Dihydroquercetin]	–	–	–	no cytotoxicity	no or limited effect	no impact on macrophage mediated parasite killing	–
Cc1c(C)c2c(c(C)c1O)CC[C@@](C)(CCC[C@H](C)CCC[C@H](C)CCCC(C)C)O2 [alpha-tocopherol, (2R)-2,5,7,8-Tetramethyl-2-[(4R,8R)-(4,8,12-trimethyltridecyl)]-6-chromanol]	–	–	–	–	no or limited effect	–	–
CC(C)=CCCC(C)(O)C1CC=C(C)CC1 (stereo not shown) [bisabolol, 6-methyl-2-(4-methyl-3-cyclohexen-1-yl)-5-hepten-2-ol]	–	–	–	–	no or limited effect	no impact on macrophage mediated parasite killing	no cytotoxicity

Source: patent US20200155503A1, “COMPOSITIONS FOR USE FOR TREATING CUTANEOUS LEISHMANIASIS” (BIONOOX SA, priority 2017, published 2020)
